Patent US20200140556A1, “Methods and Compositions for Dectin-2 Stimulation and Cancer Immunotherapy” (The Board of Trustees of the Leland Stanford Junior …, priority 2017, published 2020)

Legend:
s.c. CT26 tumors = s.c. CT26 tumors treated with mannan (i.v.) and/or GM-CSF (i.t.); format: in vivo, mice; details: from day 6
Procedure: (§1) FIG. 4A-4D. GM-CSF induces Dectin-2 expression and sensitizes tumors to Dectin-2 stimuli. (FIG. 4A-4C) Murine (FIG. 4A, FIG. 4B) and human (FIG. 4C) monocytes were cultured for 24 hr in media supplemented or not with GM-CSF (50 ng/mL) prior to flow cytometric analysis of Dectin-2 expression (FIG. 4A, FIG. 4C) or stimulation with furfurman and analysis of TNFα production (FIG. 4B). […] (FIG. 4D) Mice bearing s.c. CT26 tumors were treated with mannan (i.v.) and/or GM-CSF (i.t.) starting on day 6 post-tumor implantation.
as §1, with “(FIG.” for “FIG. 4A-4D. GM-CSF induces Dectin-2 expression and sensitizes tumors to Dectin-2 stimuli. (FIG.”, “production.” for “production (FIG. 4B).”

monocytes = assay: TNFα production by monocytes pretreated with conditioned medium +/- GM-CSF; format: cell-based, mouse
Procedure: (§2) FIG. 27A-27G. […] (FIG. 27A, FIG. 27B) Dectin-2 expression by mouse (FIG. 27A) or human (FIG. 27B) monocytes cultured for 18 hr with media supplemented or not with GM-CSF. (C-E) TNFα production by mouse monocytes pretreated with 3T3 fibroblast-conditioned medium+/−GM-CSF (FIG. 27C) or LMP tumor-conditioned medium+/−GM-CSF-neutralizing antibodies (FIG. 27D) or by human monocytes pretreated as indicated (FIG. 27E). (FIG. 27F) LMP-bearing mice treated with mannan (12.5 mg/kg i.v. q2d×2 wk) and the indicated anibodies (10 mg/kg i.p. q2d). (FIG. 27G) Heatmap depicting correlations between expression of Dectin-2 and the indicated genes in human cancer tissues. Gene expression data were obtained from TCGA and analyzed to obtain Spearman's correlation coefficients. **, p<0.01; ****, p<0.0001 by Student's t-test (B) or two-way ANOVA with post hoc Tukey's (F) test.

[1] = system: Dectin-2 expression by human monocytes; assay: Dectin-2 expression by human monocytes cultured with or without GM-CSF (flow cytometry); format: cell-based
Procedure: as §1
as §2, with “test. […]” for “test.”

[2] = system: Dectin-2 expression by murine monocytes; assay: Dectin-2 expression by murine monocytes cultured with or without GM-CSF (flow cytometry); format: cell-based
Procedure: as §1
as §2, with “test. […]” for “test.”

PDAC cells = assay: High-mannose glycan display by kifunensine-treated PDAC cells (concavalin A staining, flow cytometry); format: cell-based; details: tumor cells treated 3 days
Procedure: (§3) FIG. 5A-5D. Mannosidase inhibition with kifunensine induces high-mannose glycan display and increases tumor cell immunogenicity. (FIG. 5A-5C) PDAC cells were treated with kifunensine for 3 days prior to flow cytometric analysis (FIG. 5A) or coculture with TAM (FIG. 5B, FIG. 5C). (FIG. 5A) PDAC cells stained with the mannose-binding lectin, concavalin A. (FIG. 5B, FIG. 5C) Pretreated PDAC cells were labeled with CSFE and cocultured overnight with TAM to assess cytokine production (FIG. 5B) and tumor cell uptake (FIG. 5C) by Dectin-2-expressing TAM. In some experiments, TAM were treated with Dectin-2-blocking antibodies prior to coculture with PDAC cells (FIG. 5C). *, p<0.05 by Student's t-test. (FIG. 5D) Subcutaneous PDAC tumors from kifunensine-treated mice (i.p., q2d for 7 days) were analyzed by flow cytometry. CD8 T cells (CD8^+CD90^+) among total tumor-infiltrating immune cells are gated.

[3] = system: tumor-associated myeloid cells (TAM cells); assay: Coculture of kifunensine-pretreated PDAC cells with TAM (cytokine production, tumor cell uptake); format: cell-based; details: overnight coculture; Dectin-2-dependent
Procedure: as §3

subcutaneous PDAC tumors = assay: Subcutaneous PDAC tumors from kifunensine-treated mice (flow cytometry); format: in vivo; details: i.p., q2d for 7 days
Procedure: as §3

TAMs = assay: Stimulation of TAMs by Man2-T785 conjugate in solution; format: cell-based; details: stimuli in solution, low / equivalent concentrations
Excerpt: FIG. 21. Data showing synergism when a Dectin-2 agonist (in this case 65% Man2 100-mer) is conjugated to an immunostimulatory agent (in this case TLR7/8 agonist T785), yielding a glycopeptide conjugate (Man2-T785) that strongly stimulates cells in soluble form.
Synergistic immunostimulatory effects were also observed for the conjugate in vitro. […] Also surprising, the attachment of the TLR7/8 agonist changed the behavior of the Man2 glycopeptides in vitro. Whereas Man2 glycopeptides typically require immobilization (e.g., on a plate or cell) to strongly activate TAMs, the results shown were obtained with the stimuli in solution. […] The same is true of the Man2-antibody conjugates described elsewhere in this disclosure. FIG. 22A presents a schematic of the synthesis used to generate the Man2-T785 conjugate used in FIGS. 20 and 21. Synthetic schemes similar to that depicted in FIG. 22A could also be used to prepare conjugates using R848 (FIG. 22C) and other TLR7/8 ligands.

GM-CSF: granulocyte-macrophage colony-stimulating factor
tumor sensitivity to Dectin-2 stimuli (tumor volume) (s.c. CT26 tumors): sensitized tumors to Dectin-2 stimuli
sensitivity to Dectin-2 stimuli (TNFα production) (monocytes): sensitizes TAMs to Dectin-2 stimuli
Dectin-2 expression ([1]; 18 hr): drives Dectin-2 expression
Dectin-2 expression ([1]; GM-CSF 50 ng/mL, 24 hr): induced Dectin-2 expression
Dectin-2 expression ([2]; mouse monocytes, 18 hr): drives Dectin-2 expression
Dectin-2 expression ([2]; murine monocytes, GM-CSF 50 ng/mL, 24 hr): induced Dectin-2 expression

O=C1N[C@@H]2[C@@H](O)[C@@H](O)[C@H](O)[C@@H](CO)N2C1=O [kifunensine]
high-mannose glycans on the cell surface (PDAC cells): sharp increase in high-mannose glycans on the cell surface
TAM activation by treated tumor cells (cytokine production, tumor cell uptake) [3]: activated tumor-associated myeloid cells (TAM cells)
T cell infiltration into tumors (subcutaneous PDAC tumors): led to T cell infiltration into tumors
high-mannose glycan display by tumor cells in vivo (subcutaneous PDAC tumors): increased high-mannose glycan display by tumor cells

CCCCc1nc2c(N)nc3ccccc3c2n1CCCCN [T785, 1-(4-aminobutyl)-2-butyl-1H-imidazo[4,5-c]quinolin-4-amine]
TAM stimulation (TAMs): did not
